Patent US7026137B2, “Hepatitis” (Chang Gung University, priority 2003, dated 2006)

Tests used:
[1] = tested on: HCV in 293EBNA-Sip-L cells; assay: HCV replication in HCV-infected 293EBNA-Sip-L cell line (intracellular HCV-RNA, nested RT-PCR); type: cell-based, hepatitis C virus; settings: day 2 to day 7 after infection, RT-PCR sensitivity <10^2 copy per 10^5 cells, untreated cells 2.31×10^5 per 10^5 cells
Experimental: To verify the ability of sodium stibogluconate to inhibit HCV replication, a 293EBNA-Sip-L cell line was used. This cell line, permissive for HCV infection and replication, had been established by expressing a cellular factor, Sip-L, in 293EBNA cells (Yeh et al., J. Virol. 75 (2001) 11017–11024). This cell line was maintained in a Dulbecco's modified Eagle's medium containing 10% fetal bovine serum, 250 μg/ml G418, and 150 μg/ml hygromycin B. The cells were infected with HCV. Briefly, cells in a 60-mm-diameter petri dish were incubated with a medium containing 5 μl of HCV-positive serum (10^7 copies of HCV-RNA/ml) for 12 hr. The cells were then incubated in a fresh medium without the serum.
At the second day after the HCV infection, 293EBNA-Sip-L cells were incubated with media containing 0, 1, 10, and 100 μg/ml of sodium stibogluconate, respectively. At the seventh day, the cells were harvested to determine the intracellular level of HCV-RNA. The cells were trypsinized and washed two times with a fresh medium by centrifugation. The supernatant of the second wash (as a contamination control) and the washed cells were collected in pairs for RNA extraction and nested RT-PCR. A digoxigenin-labeled probe was used for the subsequent Southern blot analysis. The sequences of the primers, the method for generating the probe, and the procedure for RT-PCR were described in Yeh et al., J. Virol. 75 (2001) 11017–11024. An amplified HCV fragment was cloned into pCR2.1-TOPO (Invitrogen, Carlsbad, Calif.) to generate a plasmid, pTOPO-HCV5n, which served as a positive control in Southern blot analysis. As internal controls, the levels of 18s and 28s RNAs were measured.

HCV replicon = assay: HCV subgenomic RNA replicon system (Ava5); type: cell-based, hepatitis C virus
[2] = cited from earlier work
hepatitis C virus (HCV) = assay: HCV replication (HCV-RNA level by RT-PCR) in human liver slices from hepatitis C patients; type: cell-based; settings: for suppression of HCV replication in liver slices: 3 days
Experimental: Liver slices were prepared from liver tissues of the patients. To obtain the livers tissues, biopsy was performed using Bard Biopty-Cut biopsy needles (C. R. Bard, Inc. Covington, Ga.) with a diameter of 1.2 mm (18 gauge). Two equal-sized slices, 1 mm in thickness, were separated from each tissue. The remaining portion (main portion) of each tissue was subjected to pathological examination. The liver slices were incubated in a 24-well culture plate containing 2 ml of minimal essential medium-20% fetal bovine serum and fed with fresh medium daily.
To evaluate whether it suppresses the authentic HCV replication in liver slices, the liver slices from patients S10-1 to S10-6 and S00-1 to S00-6 were incubated with 0, 10, and 100 μg/ml of sodium stibogluconate (Wuhan Shengmao Corp., Hubei, China), respectively, 24 hrs after the slices had been cultured in vitro. The slices from patient S10-5 served as a negative control. Three days later (i.e., 96 hr after the slices were cultured), the level of HCV RNA in each slice was measured.
To detect the HCV-RNA level, one step RT-PCR (not nested) was performed in the manner described in Yeh et al., J. Gen. Virol. 78 (1997) 2761–2770. As a control, β-actin mRNA was measured simultaneously. 20 PCR cycles were performed, in which the amounts of the PCR products had not yet reached to a plateau. The primers used were described in Yeh et al., Oncogene 19 (2000) 5213–5220. […] Methods 65 (1997) 219–226. HCV genotypes were determined using Inno-Lipa HCV II kit (Innogenetics, Zwijndrecht, Belgium).
The responsiveness of patients to Interferon-alpha, a drug currently being used to treat hepatitis C, was evaluated using liver slices. Liver slices prepared from patients INF-1 to 6 were incubated with 5000 U/ml of interferon-alpha2b (Schering-Plough Corp., Kenilworth, N.J. Slices from patient IFN-6, who was infected by hepatitis B virus, were used as negative controls.
The slices form patient […] served as negative controls.

[3] = tested on: hepatocytes in human liver slices; assay: Viability of hepatocytes in human liver slices (intracellular AST); type: cell-based; settings: 96 hrs after the culture; Group V liver slices; without drug 57%; no significant difference between samples
Experimental: To determine whether sodium stibogluconate or interferon-alpha 2b protects hepatocytes in human liver slices, the viability of hepatocytes in human liver slices incubated with the drugs was examined. As HCV replication causes the death of hepatocytes, intracellular aspartate aminotransferase (AST) leaks out. The intracellular level of AST therefore positively correlates with the cell viability.
Liver slices prepared from the patients in Group V were treated with sodium stibogluconate or interferon-alpha 2b in the manner described above. The AST activity in the medium was determined using a standard technique 48, 72, and 96 hrs after the slices had been cultured in vitro. The AST activities in a fresh medium and in the liver slices 96 hrs after incubation were also measured. For this purpose, the slices were homogenized using a mini-homogenizer (Pellet Pestles, Kimble Deltaware, Vineland, N.J). The percentages of AST leaked out to the medium and remained in the liver slices were calculated accordingly.

hepatitis C = settings: cited from earlier work

O.O.O.O.O.O.O.O.O.O=C([O-])[C@@H]1[O][Sb]2([O-])([O][Sb]34([OH])[O][C@H]([C@H](O)CO)[C@H]([O]3)[C@H](C(=O)[O-])[O]4)[O][C@H]([C@H](O)CO)[C@@H]1[O]2.[Na+].[Na+].[Na+] [sodium stibogluconate]
intracellular HCV-RNA ([1]; 1 μg/ml): none was detected | intracellular HCV-RNA ([1]; 10 μg/ml): none was detected | intracellular HCV-RNA ([1]; 100 μg/ml): none was detected | suppression of replication of an HCV replicon (HCV replicon): capable of suppressing | estimated blood concentration immediately after injection ([2]; daily dose of 20 mg/kg as used in treating kala-azar): about 400 μg/ml | blood concentration needed for treating kala-azar ([2]; in vivo): 400 µg/mL | suppression of HCV replication in liver slices (hepatitis C virus (HCV); 10 μg/ml, slices from patient S10-3): not | suppression of HCV replication in liver slices (hepatitis C virus (HCV); 10 μg/ml, slices from patients S10-1, S10-2, S10-4 and S10-6): partially suppressed | suppression of HCV replication in liver slices (hepatitis C virus (HCV); 100 μg/ml, slices from patients S00-1, S00-2, S00-3 and S00-5): almost completely suppressed | suppression of HCV replication in liver slices (hepatitis C virus (HCV); 100 μg/ml, slices from patients S00-4 and S00-6): not

interferon-alpha 2b
intracellular AST level [3]: 83% | hepatitis C patients responsive to the treatment (hepatitis C): about 50% | suppression of HCV-RNA levels in liver slices (hepatitis C virus (HCV); 5000 U/ml, slices from patient IFN-2): no suppression | suppression of HCV-RNA levels in liver slices (hepatitis C virus (HCV); 5000 U/ml, slices from patient IFN-5): Partial suppression | suppression of HCV-RNA levels in liver slices (hepatitis C virus (HCV); 5000 U/ml, slices from patients IFN-1, 3 and 4): suppressed to undetectable levels | suppression of HCV-RNA levels in liver slices (hepatitis C virus (HCV); interferon heated to 90° C. for 10 min (inactivated) before incubation, slices from patients iIF-1 to 6): No suppression
